US6858585B1, “Cyclic depsipeptides and drugs containing the same as the active ingredient” (Nisshin Seifun Group Inc., priority 1996, dated 2005)
No end group written: not given here.

Experiments:
Type in all cases: cell-based, human
[1] = tested on: apolipoprotein A1 production in Hep G2 cells; experiment: Production of apolipoprotein A1 in Hep G2 cells, enzyme immunoassay of cultured broth (Example 2); settings: Conc. 1 μM, 7 hours, control = 100
Protocol: (§1) First, 1 ml portions of Hep G2 cells at 1×10^5 cells/ml suspended in D-MEM medium containing 10% fetal bovine serum were poured into a 24-well tissue culture plate and cultivation was carried out at 37° C. under atmosphere of a mixed gas composed of 5% carbon dioxide and 95% air for 3 days. Thereafter, the medium was removed by means of a pipette, 1 ml of fresh D-MEM medium was added and cultivation was again carried out at 37° C. under atmosphere of a mixed gas composed of 5% carbon dioxide and 95% air for one day. Then, the medium was removed by means of a pipette and washed three times with 0.5 ml of fresh D-MEM medium. 1 ml of fresh D-MEM medium was added and further 10 μl of a solution of the cyclic depsipeptide of the invention or Compound 1, 4, 5, 6, 7 or 8 dissolved in methanol at the concentration as shown in Table 3 was added. […]
It was again washed three times with 300 μl of PBS, 100 μl of the above Cultured Broths 7-10 was added and the mixture was allowed to stand at room temperature for 2 hours. […] The reaction was discontinued by the addition of 100 μl of 2N sulfuric acid, and absorbance at 490 nm was measured using absorbance at 650 nm as a control. An absolute amount of apolipoprotein A1 was determined upon a calibration curve drawn up when a commercially available apolipoprotein Al (manufactured by Sigma, U.S.A.) was used as a standard. […]

[2] = tested on: apolipoprotein B production in Hep G2 cells; experiment: Production of apolipoprotein B in Hep G2 cells, enzyme immunoassay of cultured broth (Example 2); settings: Conc. 1 μM, 7 hours, control = 100
Protocol: as §1, with “medium.” for “medium. 1 ml of fresh D-MEM medium was added and further 10 μl of a solution of the cyclic depsipeptide of the invention or Compound 1, 4, 5, 6, 7 or 8 dissolved in methanol at the concentration as shown in Table 3 was added.”
The sheep antihuman apolipoprotein B IgG fraction (manufactured by Bindingsite Co., Ltd., U.K.) was dissolved in a 0.05M aqueous sodium hydrogencarbonate solution (pH 9.5) at a concentration of 10 μg/ml. […] The reaction was discontinued by the addition of 100 μl of 2N sulfuric acid, and absorbance at 490 nm was measured using absorbance at 650 nm as a control. The absorbance obtained was defined as that of apolipoprotein B. An absolute amount of apolipoprotein B was determined upon a calibration curve drawn up when a commercially available low density lipoprotein (manufactured by Sigma, U.S.A.) was used as a standard. […]

[3] = tested on: apolipoprotein E production in Hep G2 cells; experiment: Production of apolipoprotein E in Hep G2 cells, enzyme immunoassay of cultured broth (Example 2: 7 h with compound); settings: Conc. 1 μM, control = 100
Protocol: The mouse antihuman apolipoprotein E monocional antibody (manufactured by BYOSIS, S. A., France) was dissolved in a 0.05M aqueous sodium hydrogencarbonate solution (pH 9.5) at a concentration of […]. 50 μl of this solution was poured in portions into a Nunk immunoplate, which was then allowed to stand at 4° C. for 16 hours. After washing thrice with 300 μl of PBS, 300 μl of the blocking solution was added and the mixture was allowed to stand at 37° C. for 2 hours.
It was again washed three times with 300 μl of PBS, 50 μl of the above cultured broth 1 was added and the mixture was allowed to stand at room temperature for 2 hours. After washing three times with 300 μl of PBS-T, 50 μl of a 3000-fold diluted solution (10% aqueous Block Ace solution) of goat anti-apolipoprotein E polyclonal antibody (manufactured by Chemicon Co., Ltd., U.S.A.) was added and the mixture was allowed to stand at room temperature for 2 hours. […] The reaction was discontinued by the addition of 100 μl of 2N sulfuric acid, and absorbance at 490 nm was measured using absorbance at 650 nm as a control. An absolute amount of apolipoprotein E in cultured broths 1-6 was determined upon a calibration curve drawn up when a commercially available apolipoprotein E (Chemicon Co., Ltd., U.S.A.) was used as a standard. […]

In the case of “Compound 7 (QLLVDLI; ester (positions not given here); also: cyclic depsipeptide, ring closure places not given here)”, the “Relative amount of apolipoprotein A1 (%)” value [1] is reported as 135%, the “Relative amount of apolipoprotein B (%)” value [2] is reported as 76% and the “Relative amount of apolipoprotein E (%)” value [3] is reported as 163%.
